From PubChem BioAssay AID248 (DTP/NCI, 2004)
“And” between values parts separate entries of the source, which are not always exact repeats. Equal entries are not always repeated. Inconclusive results and toxic doses are left out.

System: L1210 leukemia ip in BDF1 mice, survival T/C
Assay: NCI In Vivo Anticancer Drug Screen. Data for tumor model L1210 Leukemia (intraperitoneal) in B6D2F1 (BDF1) mice
Settings: endpoint: mean survival time, higher = longer survival
How it was run: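 Transplantable tumor model; survival measured in treated vs vehicle control mice. Value = treated/control.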

[1] = dose: 50.0 mg/kg/injection, schedule: Q01DX001 (ip), vehicle: saline
[2] = dose: 100.0 mg/kg/injection, schedule: Q01DX001 (ip), vehicle: saline
[3] = dose: 100.0 mg/kg/injection, schedule: Q01DX009 (ip), vehicle: saline
[4] = dose: 100.0 mg/kg/injection, schedule: Q04DX002 (ip), vehicle: saline
[5] = dose: 100.0 mg/kg/injection, schedule: Q04DX003 (ip), vehicle: saline
[6] = dose: 200.0 mg/kg/injection, schedule: Q01DX009 (ip), vehicle: saline
[7] = dose: 200.0 mg/kg/injection, schedule: Q04DX002 (ip), vehicle: saline
[8] = dose: 200.0 mg/kg/injection, schedule: Q04DX003 (ip), vehicle: saline
[9] = dose: 400.0 mg/kg/injection, schedule: Q01DX009 (ip), vehicle: saline
[10] = dose: 400.0 mg/kg/injection, schedule: Q04DX003 (ip), vehicle: saline
[11] = dose: 100.0 mg/kg/injection, schedule: Q01DX009 (ip), vehicle: saline with Tween-80
[12] = dose: 200.0 mg/kg/injection, schedule: Q01DX009 (ip), vehicle: saline with Tween-80
[13] = dose: 100.0 mg/kg/injection, schedule: Q01DX009 (ip), vehicle: Klucel (hydroxypropylcellulose) (HPC)
[14] = dose: 200.0 mg/kg/injection, schedule: Q01DX009 (ip), vehicle: Klucel (hydroxypropylcellulose) (HPC)
[15] = dose: 400.0 mg/kg/injection, schedule: Q01DX009 (ip), vehicle: Klucel (hydroxypropylcellulose) (HPC)
[16] = dose: 100.0 mg/kg/injection, schedule: Q01DX001 (ip), vehicle: saline with Tween-80
[17] = dose: 100.0 mg/kg/injection, schedule: Q04DX003 (ip), vehicle: saline with Tween-80
[18] = dose: 200.0 mg/kg/injection, schedule: Q01DX001 (ip), vehicle: saline with Tween-80
[19] = dose: 200.0 mg/kg/injection, schedule: Q04DX003 (ip), vehicle: saline with Tween-80
[20] = dose: 400.0 mg/kg/injection, schedule: Q01DX001 (ip), vehicle: saline with Tween-80
[21] = dose: 400.0 mg/kg/injection, schedule: Q04DX003 (ip), vehicle: saline with Tween-80
[22] = dose: 200.0 mg/kg/injection, schedule: Q01DX001 (ip), vehicle: saline

C=CCc1cn(C2CC(O)C(CO)O2)c(=O)[nH]c1=O (centres undefined)
T/C [1]: 101 % of control | T/C (dose: 50.0 mg/kg/injection, schedule: Q04DX002 (ip), vehicle: saline): 91 % of control | T/C [2]: 100 % of control and 101 % of control and 106 % of control | T/C [3]: 98 % of control | T/C [4]: 110 % of control | T/C [5]: 106 % of control | T/C (dose: 115.0 mg/kg/injection, schedule: Q01DX009 (ip), vehicle: saline): 104 % of control | T/C (dose: 175.0 mg/kg/injection, schedule: Q01DX009 (ip), vehicle: saline): 102 % of control | T/C (dose: 178.0 mg/kg/injection, schedule: Q01DX015 (ip), vehicle: saline): 110 % of control | T/C [6]: 109 % of control and 112 % of control | T/C [7]: 100 % of control | T/C [8]: 95 % of control | T/C (dose: 264.0 mg/kg/injection, schedule: Q01DX009 (ip), vehicle: saline): 110 % of control | T/C (dose: 267.0 mg/kg/injection, schedule: Q01DX015 (ip), vehicle: saline): 107 % of control | T/C [9]: 115 % of control | T/C (dose: 400.0 mg/kg/injection, schedule: Q01DX015 (ip), vehicle: saline): 119 % of control | T/C [10]: 111 % of control | T/C (dose: 600.0 mg/kg/injection, schedule: Q01DX015 (ip), vehicle: saline): 121 % of control | T/C (dose: 800.0 mg/kg/injection, schedule: Q01DX001 (ip), vehicle: saline): 105 % of control | T/C (dose: 1600.0 mg/kg/injection, schedule: Q01DX001 (ip), vehicle: saline): 110 % of control

S=c1[nH]sc(=S)[nH]1
T/C [11]: 100 % of control | T/C [12]: 98 % of control

Cc1cc(Cl)c(Cl)cc1NC(=O)C(Br)C(Br)C(=O)O (centres undefined)
T/C [11]: 97 % of control | T/C [12]: 96 % of control

C=CC1=CC(=O)OC1=O
T/C (dose: 10.0 mg/kg/injection, schedule: Q01DX001 (ip), vehicle: saline): 88 % of control

CC(C)OP(=O)(Cc1ccccc1CBr)OC(C)C
T/C [4]: 109 % of control | T/C [7]: 102 % of control | T/C (dose: 400.0 mg/kg/injection, schedule: Q04DX002 (ip), vehicle: saline): 109 % of control

CC(C)=NNC(=O)C1CC=CC1C(Cl)Cl (centres undefined)
T/C [13]: 96 % of control | T/C [14]: 98 % of control | T/C [15]: 93 % of control

O=[N+]([O-])c1cccc(N(CCF)CCF)c1
T/C (dose: 5.0 mg/kg/injection, schedule: Q01DX001 (ip), vehicle: carboxymethylcellulose (CMC)): 103 % of control | T/C (dose: 10.0 mg/kg/injection, schedule: Q01DX001 (ip), vehicle: carboxymethylcellulose (CMC)): 103 % of control | T/C (dose: 20.0 mg/kg/injection, schedule: Q01DX001 (ip), vehicle: carboxymethylcellulose (CMC)): 112 % of control

CN(CCc1ccccc1)/N=N/c1nc[nH]c1C(N)=O
T/C [16]: 96 % of control | T/C [13]: 102 % of control | T/C [17]: 110 % of control | T/C (dose: 118.0 mg/kg/injection, schedule: Q04DX003 (ip), vehicle: saline with Tween-80): 101 % of control | T/C (dose: 150.0 mg/kg/injection, schedule: Q01DX009 (ip), vehicle: saline with Tween-80): 155 % of control | T/C (dose: 177.0 mg/kg/injection, schedule: Q04DX003 (ip), vehicle: saline with Tween-80): 115 % of control | T/C [18]: 104 % of control | T/C [14]: 103 % of control | T/C [19]: 112 % of control | T/C (dose: 300.0 mg/kg/injection, schedule: Q01DX009 (ip), vehicle: saline with Tween-80): 163 % of control | T/C [20]: 118 % of control | T/C [15]: 113 % of control | T/C [21]: 150 % of control | T/C (dose: 600.0 mg/kg/injection, schedule: Q04DX003 (ip), vehicle: saline with Tween-80): 179 % of control

O=[N+]([O-])c1cc(Br)cc(Br)c1S(=O)(=O)O
T/C [3]: 105 % of control | T/C [5]: 103 % of control | T/C [6]: 97 % of control | T/C [8]: 110 % of control | T/C [9]: 108 % of control | T/C [10]: 108 % of control

COC(=O)C#CCCC#CC(C)=O
T/C (dose: 18.0 mg/kg/injection, schedule: Q04DX002 (ip), vehicle: gum acacia): 96 % of control | T/C (dose: 37.0 mg/kg/injection, schedule: Q04DX002 (ip), vehicle: gum acacia): 107 % of control | T/C (dose: 75.0 mg/kg/injection, schedule: Q04DX002 (ip), vehicle: gum acacia): 102 % of control and 104 % of control

COC(=O)c1ccnc(C(=O)OC)c1
T/C (dose: 100.0 mg/kg/injection, schedule: Q01DX001 (ip), vehicle: saline sonified): 98 % of control | T/C [3]: 95 % of control | T/C (dose: 200.0 mg/kg/injection, schedule: Q01DX001 (ip), vehicle: saline sonified): 103 % of control | T/C [6]: 95 % of control | T/C (dose: 400.0 mg/kg/injection, schedule: Q01DX001 (ip), vehicle: saline sonified): 98 % of control | T/C [9]: 93 % of control

C1=C(c2ccccc2)c2ccccc2CC1
T/C [1]: 96 % of control | T/C [2]: 102 % of control | T/C [22]: 106 % of control

O=[N+]([O-])c1cc(S(=O)(=O)c2ccccc2)ccc1S(=O)(=O)c1ccccc1
T/C (dose: 50.0 mg/kg/injection, schedule: Q01DX005 (ip), vehicle: saline with Tween-80): 99 % of control | T/C (dose: 100.0 mg/kg/injection, schedule: Q01DX005 (ip), vehicle: saline with Tween-80): 94 % of control | T/C (dose: 400.0 mg/kg/injection, schedule: Q01DX005 (ip), vehicle: saline with Tween-80): 89 % of control

C=CCOCC(O)COP(=O)(O)O (centres undefined)
T/C [1]: 113 % of control | T/C [2]: 103 % of control | T/C [22]: 107 % of control | T/C (dose: 400.0 mg/kg/injection, schedule: Q01DX001 (ip), vehicle: saline): 109 % of control

COC1CCC2C(C1)C(=O)CC1c3[nH]c4ccccc4c3CCN12 (centres undefined)
T/C [16]: 100 % of control | T/C [18]: 101 % of control | T/C [20]: 99 % of control

c1ccc2c(c1)CCC1NC21 (centres undefined)
T/C (dose: 100.0 mg/kg/injection, schedule: Q01DX001 (ip), vehicle: carboxymethylcellulose (CMC)): 103 % of control | T/C (dose: 200.0 mg/kg/injection, schedule: Q01DX001 (ip), vehicle: carboxymethylcellulose (CMC)): 105 % of control

CCO/C=C1\SC(=S)N(c2cccc(O)c2)C1=O
T/C (dose: 25.0 mg/kg/injection, schedule: Q01DX009 (ip), vehicle: Klucel (hydroxypropylcellulose) (HPC)): 86 % of control | T/C (dose: 50.0 mg/kg/injection, schedule: Q01DX009 (ip), vehicle: Klucel (hydroxypropylcellulose) (HPC)): 113 % of control | T/C [13]: 93 % of control

Nc1nc(N)c2c(Cl)c(CNc3ccc(Cl)c(Cl)c3)ccc2n1
T/C (dose: 6.25 mg/kg/injection, schedule: Q01DX009 (ip), vehicle: water): 124 % of control | T/C (dose: 12.5 mg/kg/injection, schedule: Q01DX009 (ip), vehicle: saline with Tween-80): 158 % of control | T/C (dose: 50.0 mg/kg/injection, schedule: Q01DX009 (ip), vehicle: saline with Tween-80): 119 % of control | T/C (dose: 50.0 mg/kg/injection, schedule: Q01DX009 (ip), vehicle: water): 93 % of control and 110 % of control | T/C (dose: 50.0 mg/kg/injection, schedule: Q04DX003 (ip), vehicle: water): 107 % of control | T/C [11]: 91 % of control | T/C (dose: 100.0 mg/kg/injection, schedule: Q01DX009 (ip), vehicle: water): 86 % of control | T/C (dose: 100.0 mg/kg/injection, schedule: Q04DX003 (ip), vehicle: water): 124 % of control | T/C (dose: 400.0 mg/kg/injection, schedule: Q04DX003 (ip), vehicle: water): 113 % of control | T/C (dose: 600.0 mg/kg/injection, schedule: Q04DX003 (ip), vehicle: water): 97 % of control

CC(C)c1ccc(N=Nc2ccc(N(C)C)cc2)cc1
T/C [17]: 95 % of control | T/C [19]: 95 % of control | T/C [21]: 94 % of control
